Source: patent US8071540B2, “Virus derived antimicrobial peptides” (priority 2007, dated 2011)
Entries after “also recorded” stand apart in the source; their conditions may differ. Where no end group is shown, it is not given here.

Columns and labels:
[1] = tested on: Pseudomonas aeruginosa; experiment: Bacterial lysis (broth dilution) assay, MBC; type: cell-based; set-up: MBC, Psuedomonas aeruginosa, 0 mM NaCl / MBC, Psuedomonas aeruginosa, 150 mM NaCl: unit not given here; conditions: for P. aeruginosa killing, influence of physiologic NaCl: phosphate buffer with 150 mM NaCl versus low salt; for MBC, Psuedomonas aeruginosa, 0 mM NaCl: 0 mM NaCl (10 mM phosphate buffer); for MBC, Psuedomonas aeruginosa, 0 mM NaCl / MBC, Psuedomonas aeruginosa, 150 mM NaCl: 99.9% killing; for MBC, Psuedomonas aeruginosa, 150 mM NaCl: 150 mM NaCl (physiologic)
[2] = tested on: Staphylococcus aureus; experiment: Bacterial lysis (broth dilution) assay, MBC; type: cell-based; conditions: for MBC, Staphylococcus aureus, 0 mM NaCl: 0 mM NaCl (10 mM phosphate buffer); for MBC, Staphylococcus aureus, 0 mM NaCl / MBC, Staphylococcus aureus, 150 mM NaCl: 99.9% killing; for MBC, Staphylococcus aureus, 150 mM NaCl: 150 mM NaCl (physiologic)
Excerpt: The assays for growth inhibition of a microbial target can be used to derive a minimum bactericidal concentration (MBC) value for the peptide, i.e., the concentration of peptide required to kill 99.9% (3-log decrease) of the microbial sample being tested. This value is well known to those in the art as representative of the effectiveness of a particular antimicrobial agent (e.g., an antibiotic) against a particular organism or group of organisms. In assays to detect the MBC of a peptide, growth inhibition of a bacterial population also can be measured with reference to the number of colony forming units (cfu) after exposure to a peptide relative to a control experiment without a peptide.
Bacterial lysis assay. Bacterial lysis assays were conducted in a manner similar to that described previously (Lehrer, R. I., M. E. Selsted, D. Szklarek, and F. J. 1983. Infect. Immun. 42: 10-4, 1983; Miller, M. A., R. F. Garry, J. M. Jaynes, and R. C. Montelaro, AIDS Res Hum Retroviruses 7:511-519, 1991). Bacterial suspensions were cultured in Luria-Bertani Broth to mid-log growth phase and washed by two cycles of centrifugation and suspension in 10 mM phosphate buffer. The Abs600 of the suspension was adjusted with 10 mM phosphate buffer such that, upon dilution, 5-10×10^5 cfu/mL would be treated in the assay. Bacteria were incubated for 1 h with two-fold dilutions of peptides (100 μM to 100 nM) in 96-well plates using 10 mM phosphate buffer, pH 7.2, as a diluent. Ten-fold dilutions of bacteria were performed to 1:1 000; a 100 μl aliquot from each condition was spread on the surface of tryptic soy agar plates (Difco, Detroit, Mich.) which were incubated overnight. Colonies of surviving bacteria (cfu, colony-forming units) were counted and compared to untreated controls to determine the amount of peptide-induced killing under each condition. Log killing is defined as the log of the ratio of cfu present before and after treatment with peptide. The minimal bactericidal concentration, MBC, is the peptide concentration at which 99.9% (three log) killing is achieved (Pearson et al., Antimicrob. Agents Chemother. 18: 699-708, 1980).
Results. Representative gram positive (S. aureus) and gram negative (P. aeruginosa) clinical isolates were used as the index bacteria to survey the peptides described herein.
A limitation of many host-derived antimicrobial peptides is their decreased activity at physiologic (150 mM) NaCl concentration. See Friedrich et al., Antimicrobial Agents and Chemotherapy 43:1542-1548. The peptides WLSA-5 (SEQ ID NO: 3) and LL37 were tested against the two index strains at physiologic NaCl. […] The activity of antimicrobial peptides described herein were compared to an expanded list of clinical bacterial isolates. These are summarized in Table 2 by comparing their MBCs in phosphate buffer alone (low salt) and phosphate buffer containing 150 mM NaCl (physiologic conditions). Inspection of this table would lead one skilled in the art to conclude that the activity of antimicrobial peptides described herein compare favorably to the host derived antimicrobial peptides as it relates to the spectrum and potency of antimicrobial activity.

[3] = tested on: Methicillin Resistant S. aureus; type: cell-based, Staphylococcus aureus; set-up: unit not given here; conditions: 99.9% killing; for MBC, Methicillin Resistant S. aureus, 0 mM NaCl: 0 mM NaCl (10 mM phosphate buffer); for MBC, Methicillin Resistant S. aureus, 150 mM NaCl: 150 mM NaCl (physiologic)
[4] = biological target: Ca^2+ saturated calmodulin (Homo sapiens, UniProt P0DP23); conditions: host cell Ca^2+ saturated calmodulin; cited from earlier work
[5] = tested on: diverse gram-negative and -positive bacterial isolates; conditions: cited from earlier work
[6] = tested on: Pseudomonas aeruginosa; conditions: 1×10^5 colony-forming units; cited from earlier work
[7] = tested on: Staphylococcus aureus; conditions: 1×10^5 colony-forming units; cited from earlier work
[8] = tested on: HIV-1 (strain IIIB) virions; experiment: Suppression of HIV-1 infectivity, p24 antigen in PHA stimulated PBMCs; type: cell-based; conditions: 1 and 0.1 μM
Experimental: In this example human peripheral blood […] (PBMCs) were obtained from healthy volunteers and maintained in culture at a concentration of 1×10^5 viable cells per mL of medium. These cells were stimulated by the addition of phytohemagglutinin (PHA). To this a standardized titer of purified HIV-1 (strain IIIB) virions was added to PBMCs to generate a p24 antigen signal of 14,000 pg/mL five days post exposure to virus.
In order to test whether the LLP peptide, LSA-5 (SEQ ID NO: 2) was able to suppress HIV-1 activity, LSA-5 at concentrations ranging between 0.1 and 100 μM were incubated with the standard virus titer determined as above for 30 min. Virions surviving peptide exposure were isolated by ultracentrifugation at 100,000×g for 60 min. Viral pellets were used to infect PHA stimulated PBMCs prepared as described above. Five days post infection the level of p24 antigen was determined and compared to a non-peptide treated control. The data was expressed as the ratio of p24 antigen associated with peptide-treated vs. non-peptide treated HIV-1 infected cells to obtain a value referred to as percent suppression.

[9] = tested on: S. aureus; experiment: Rabbit joint model of septic arthritis
[10] = tested on: S. epidermidis; experiment: In vitro activity against S. epidermidis
[11] = tested on: S. aureus; experiment: Bactericidal activity in human synovial fluid
[12] = tested on: P. aeruginosa; experiment: LSA-5 bound to Affigel 15 column, viable bacteria in eluant; conditions: same column repeatedly exposed to bacterial suspensions
[13] = tested on: Burkholderia cepacia; type: cell-based; conditions: standard broth dilution, FIG. 7
[14] = tested on: P. aeruginosa attached to differentiated human bronchial epithelial cells; experiment: CF cell culture model: killing of bacteria bound to airway epithelial cells; type: cell-based, Pseudomonas aeruginosa; conditions: increasing peptide concentration, co-culture, FIG. 9
[15] = tested on: differentiated primary human airway epithelial cells; experiment: CF cell culture model: transepithelial resistance as peptide toxicity

Substance: LL37: human cathelicidin, 37-amino acid amphiphilic a-helical cationic host derived antimicrobial peptide (LLGDFFRKSKEKIGKEFKRIVQRIKDFLRNLVPRTES; Antibacterial peptide LL-37; UniProt P49913 134-170, looked up) [reference compound]
- P. aeruginosa killing, influence of physiologic NaCl [1]: not affected by NaCl inclusion

Substance: LLP1: prototypical lentiviral lytic peptide, amino acids 828-856 of the HIV-1 viral isolate HXB2R Env (SEQ ID NO: 19) (RVIEVVQGACRAIRHIPRRIRQGLERIL; Human immunodeficiency virus type 1) [reference compound]
- MBC, Psuedomonas aeruginosa, 0 mM NaCl [1]: 1000
- MBC, Psuedomonas aeruginosa, 150 mM NaCl [1]: 1000
- MBC, Staphylococcus aureus, 0 mM NaCl [2]: 8000 nM
- MBC, Staphylococcus aureus, 150 mM NaCl [2]: 16000 nM
- MBC, Methicillin Resistant S. aureus, 0 mM NaCl [3]: 16000
- binding affinity to calmodulin [4]: near nanomolar affinity
- antibacterial activity compared with magainin-2 [5]: equal to, or more potent than magainin-2
- time to nearly sterilize suspension, P. aeruginosa [6]: ≤ 60 s
- time to nearly sterilize suspension, S. aureus [7]: ≤ 60 s

Substance: RRVVRRVRRVVRRVVRVVRRVVRR [LBU-2]
- MBC, Psuedomonas aeruginosa, 0 mM NaCl [1]: 1500
- MBC, Psuedomonas aeruginosa, 150 mM NaCl [1]: 800
- MBC, Staphylococcus aureus, 0 mM NaCl [2]: 1500 nM

Substance: RRVVRRVRRVVRRVVRVVRRVVRRVRRVVRRVVRVVRRVVRR (RRVVRRVRRVVRRVVRVVRRVVRRVRRVVRRVVRVVRRVVRR; Antimicrobial peptide) [LBU-3.5]
- MBC, Psuedomonas aeruginosa, 0 mM NaCl [1]: 400
- MBC, Psuedomonas aeruginosa, 150 mM NaCl [1]: 400
- MBC, Staphylococcus aureus, 0 mM NaCl [2]: 1000 nM
- MBC, Staphylococcus aureus, 150 mM NaCl [2]: 600 nM
- MBC, Methicillin Resistant S. aureus, 0 mM NaCl [3]: 1500
- MBC, Methicillin Resistant S. aureus, 150 mM NaCl [3]: 200

Substance: RVIRVVQRACRAIRHIVRRIRQGLRRIL (RVIRVVQRACRAIRHIVRRIRQGLRRIL; Antimicrobial peptide) [SA-5]
- MBC, Psuedomonas aeruginosa, 0 mM NaCl [1]: 1000
- MBC, Psuedomonas aeruginosa, 150 mM NaCl [1]: 1000
- MBC, Staphylococcus aureus, 0 mM NaCl [2]: 1000 nM

Substance: RVIRVVQRACRAIRHIVRRIRQGLRRILRVV [LSA-5, RVIRVVQRACRAIRHIVRRIRQGLRRILRVV]
- MBC, Psuedomonas aeruginosa, 0 mM NaCl [1]: 800
- MBC, Psuedomonas aeruginosa, 150 mM NaCl [1]: 800
- MBC, Staphylococcus aureus, 0 mM NaCl [2]: 1000 nM
- MBC, Staphylococcus aureus, 150 mM NaCl [2]: 1000 nM
- MBC, Methicillin Resistant S. aureus, 0 mM NaCl [3]: 150
- reduction of HIV-1 infectivity [8]: drop off this inhibitory activity
- bacteria (colony forming units) in joint fluid ([9]; 50, 100 and 200 μM intraarticularly, 1 h after instillation, versus non-peptide treated joint, FIG. 11): dose-dependent decrease in colony forming units; also recorded: significantly increases bacterial killing
- bacterial load in joint, comparison with 0.35% neomycin ([9]; intraarticular at 0, 1 and 2 h, FIG. 12): nearly as effective as a standard concentration of neomycin
- adverse toxicity in animal experiments ([9]; peptide administered alone, intraarticular): no adverse toxicity was observed
- bacterial load in joint ([9]; two treatments of 150 μM at 0 and 1 h, 1 h post-treatment, versus phosphate buffer): significant decrease
- activity against S. epidermidis in vitro [10]: highly active
- concentration at which peptide is still active in synovial fluid ([11]; 1:4 dilution of human synovial fluid, FIG. 10): 128 µM
- effect of synovial fluid on activity ([11]; versus phosphate buffer containing physiologic NaCl): clearly impairs the activity
- passages of bacterial suspension over which the column maintained activity [12]: up to 6 passages

Substance: RVVRVVRRVVRRVRRVVRRVVRVVRRVVRRVRRVVRRVVRVVRRVVRR [LBU-4]
- MBC, Psuedomonas aeruginosa, 0 mM NaCl [1]: 800
- MBC, Psuedomonas aeruginosa, 150 mM NaCl [1]: 400
- MBC, Staphylococcus aureus, 0 mM NaCl [2]: 800 nM
- MBC, Staphylococcus aureus, 150 mM NaCl [2]: 800 nM

Substance: RVVRV VRRWV RR (RVVRVVRRWVRR; Antimicrobial peptide) [WLBU-1]
- MBC, Psuedomonas aeruginosa, 0 mM NaCl [1]: 400
- MBC, Psuedomonas aeruginosa, 150 mM NaCl [1]: 2500
- MBC, Staphylococcus aureus, 0 mM NaCl [2]: 30,000 nM
- MBC, Staphylococcus aureus, 150 mM NaCl [2]: 10,000 nM
- MBC, Methicillin Resistant S. aureus, 0 mM NaCl [3]: 50,000
- MBC, Methicillin Resistant S. aureus, 150 mM NaCl [3]: 50,000

Substance: RVVRVVRRWVRRVRRVWRRVVRVVRRWVRRVRRVWRRVVRVVRRWRVV (RVVRVVRRWVRRVRRVWRRVVRVVRRWVRRVRRVWRRVVRVVRRWRVV; Antimicrobial peptide) [WLBU-4]
- MBC, Psuedomonas aeruginosa, 0 mM NaCl [1]: 1500
- MBC, Psuedomonas aeruginosa, 150 mM NaCl [1]: 400
- MBC, Staphylococcus aureus, 0 mM NaCl [2]: 3,000 nM
- MBC, Staphylococcus aureus, 150 mM NaCl [2]: 600 nM
- MBC, Methicillin Resistant S. aureus, 0 mM NaCl [3]: 1500
- MBC, Methicillin Resistant S. aureus, 150 mM NaCl [3]: 200

Substance: RWIRVVQRWCRAIRHIWRRIRQGLRRWLRVV [WLSA-5, RWIRVVQRWCRAIRHIWRRIRQGLRRWLRVV]
- MBC, Psuedomonas aeruginosa, 0 mM NaCl [1]: 1000
- MBC, Psuedomonas aeruginosa, 150 mM NaCl [1]: 1000
- P. aeruginosa killing, influence of physiologic NaCl [1]: not affected by NaCl inclusion; also recorded: maintained its activity in low and physiologic salt conditions
- MBC, Staphylococcus aureus, 0 mM NaCl [2]: 1000 nM
- MBC, Staphylococcus aureus, 150 mM NaCl [2]: 1000 nM
- S. aureus killing, influence of physiologic NaCl ([2]; phosphate buffer with 150 mM NaCl versus low salt): not influenced by NaCl in the same way as LL37; also recorded: maintained its activity in low and physiologic salt conditions
- MBC, Methicillin Resistant S. aureus, 0 mM NaCl [3]: 150
- activity against B. cepacia clinical isolate [13]: significantly more active than LSA-5
- viability of bacteria bound to epithelial cells [14]: decrease in bacterial viability
- change in transepithelial resistance ([15]; at a decrease in bacterial counts by two orders of magnitude): less than 50%
- effect on trans-epithelial resistance ([15]; compared with LL-37): transient and not significantly different from LL-37

Substance: VRRVVRRVVRVVRRVVRRVRRVVRRVVRVV RRVVRR (VRRVVRRVVRVVRRVVRRVRRVVRRVVRVVRRVVRR; Antimicrobial peptide) [LBU-3]
- MBC, Psuedomonas aeruginosa, 0 mM NaCl [1]: 1500
- MBC, Psuedomonas aeruginosa, 150 mM NaCl [1]: 800
- MBC, Staphylococcus aureus, 0 mM NaCl [2]: 1500 nM
- MBC, Staphylococcus aureus, 150 mM NaCl [2]: 1500 nM

Substance: VRRVWRRVVRVVRRWVRRVRRVWRRVVRVV RRWVRR (VRRVWRRVVRVVRRWVRRVRRVWRRVVRVVRRWVRR; Antimicrobial peptide) [WLBU-3]
- MBC, Psuedomonas aeruginosa, 0 mM NaCl [1]: 1500
- MBC, Psuedomonas aeruginosa, 150 mM NaCl [1]: 800
- MBC, Staphylococcus aureus, 0 mM NaCl [2]: 3,000 nM
- MBC, Staphylococcus aureus, 150 mM NaCl [2]: 600 nM
- MBC, Methicillin Resistant S. aureus, 0 mM NaCl [3]: 400
- MBC, Methicillin Resistant S. aureus, 150 mM NaCl [3]: 100
